Laboratory results as given in ChEMBL document CHEMBL1201862, “PubChem BioAssay data set” (2004).
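Results reflect a 48-hour exposure of cells in 96-well plates to compound at five concentrations. Here, GI50 denotes the concentration required for 50% inhibition of growth.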 Activity calls are given as the source filed them. Rule as the data show it: active = GI50 up to about 1.1 µM and inactive = higher.

Columns and labels:
Experiment in all cases: NCI-60 cell line screen, 48 h
SF-268 = tested on: SF-268
SF-539 = tested on: SF-539
SNB-78 = tested on: SNB-78
SK-MEL-28 = tested on: SK-MEL-28
LXFL 529 = tested on: LXFL 529
DMS-273 = tested on: DMS-273
SK-MEL-2 = tested on: SK-MEL-2
PC-3 = tested on: PC-3
MDA-MB-435 = tested on: MDA-MB-435
KM12 = tested on: KM12
NCI/ADR-RES = tested on: NCI/ADR-RES
NCI-H226 = tested on: NCI-H226
Malme-3M = tested on: Malme-3M
HL-60 = tested on: HL-60
HCT-15 = tested on: HCT-15
HOP-18 = tested on: HOP-18
NCI-H23 = tested on: NCI-H23
MDA-MB-231 = tested on: MDA-MB-231
UO-31 = tested on: UO-31
DLD-1 = tested on: DLD-1

SMILES	GI50 (SF-268)	GI50 (SF-539)	GI50 (SNB-78)	GI50 (SK-MEL-28)	GI50 (LXFL 529)	GI50 (DMS-273)	GI50 (SK-MEL-2)	GI50 (PC-3)	GI50 (MDA-MB-435)	GI50 (KM12)	GI50 (NCI/ADR-RES)	GI50 (NCI-H226)	GI50 (Malme-3M)	GI50 (HL-60)	GI50 (HCT-15)	GI50 (HOP-18)	GI50 (NCI-H23)	GI50 (MDA-MB-231)	GI50 (UO-31)	GI50 (DLD-1)
COc1cc(/C=C/C(=O)Oc2ccc(NC(C)=O)cc2)ccc1C(=O)OCc1ccccc1	56.6 µM (inactive)	36.3 µM (inactive)	32.6 µM (inactive)	> 100 µM (inactive)	> 100 µM (inactive)	78 µM (inactive)	53.1 µM (inactive)	> 100 µM (inactive)	> 100 µM (inactive)	> 100 µM (inactive)	> 100 µM (inactive)	> 100 µM (inactive)	> 93.5 µM (inactive)	> 72.3 µM (inactive)	> 100 µM	> 100 µM (inactive)	> 89.9 µM (inactive)	> 100 µM (inactive)	> 100 µM (inactive)	> 100 µM (inactive)
[O-][n+]1ccccc1S [PYRITHIONE ZINC]	1.03 µM (active)	1.97 µM (inactive)	3.94 µM (inactive)	1.97 µM (inactive)	0.327 µM (active)	0.366 µM (active)	1.49 µM (inactive)			1.38 µM (inactive)		10.2 µM (inactive)	2.45 µM (inactive)	0.232 µM (active)	0.577 µM	3.78 µM (inactive)	1.21 µM (inactive)		2.43 µM (inactive)	0.115 µM (active)
CCCCN(CCCC)C(=O)C(=O)C(C#N)c1ccc(C)cc1 (stereo unspecified)	> 100 µM (inactive)	> 100 µM (inactive)	> 100 µM (inactive)	> 100 µM (inactive)	> 100 µM (inactive)	> 100 µM (inactive)	> 100 µM (inactive)			> 100 µM (inactive)		> 100 µM (inactive)	> 100 µM (inactive)	> 100 µM (inactive)	> 100 µM	> 100 µM (inactive)	> 100 µM (inactive)		> 100 µM (inactive)	> 100 µM (inactive)
CC1CC2=Nc3ccccc3NC(c3ccccc3)C2=C(O)O1 (stereo unspecified)	> 100 µM (inactive)	> 100 µM (inactive)	> 100 µM (inactive)	> 100 µM (inactive)	> 100 µM (inactive)	> 100 µM (inactive)	> 100 µM (inactive)			> 100 µM (inactive)		> 100 µM (inactive)	> 100 µM (inactive)	> 100 µM (inactive)	> 100 µM	> 100 µM (inactive)	> 100 µM (inactive)		> 100 µM (inactive)	> 100 µM (inactive)
CN(CCO)c1nc(=O)c2c([nH]1)CCC2	> 100 µM (inactive)	> 100 µM (inactive)	> 100 µM (inactive)	> 100 µM (inactive)	> 100 µM (inactive)	> 100 µM (inactive)	> 100 µM (inactive)			> 100 µM (inactive)		> 100 µM (inactive)	> 100 µM (inactive)	> 100 µM (inactive)	> 100 µM	> 100 µM (inactive)	> 100 µM (inactive)		> 100 µM (inactive)	> 100 µM (inactive)
CCCc1c(C(=O)OCC)[nH]c(-c2ccc(-c3[nH]c(C(=O)OCC)c(CCC)c3C(=O)OCC)o2)c1C(=O)OCC	> 100 µM (inactive)	> 100 µM (inactive)	> 100 µM (inactive)	> 100 µM (inactive)	> 100 µM (inactive)	> 100 µM (inactive)	> 100 µM (inactive)			> 100 µM (inactive)		> 100 µM (inactive)	> 100 µM (inactive)	> 100 µM (inactive)	> 100 µM	> 100 µM (inactive)	> 100 µM (inactive)		> 100 µM (inactive)	> 100 µM (inactive)
Cc1cc(C(C)(C)C)cc(Cc2cc(C(C)(C)C)cc(Cc3cc(C(C)(C)C)cc(C)c3O)c2O)c1O	2.89 µM (inactive)	7.71 µM (inactive)	4.98 µM (inactive)		8.04 µM (inactive)	10.9 µM (inactive)	10.4 µM (inactive)			9.66 µM (inactive)		12.1 µM (inactive)	10.7 µM (inactive)	3.71 µM (inactive)	11.9 µM	15.4 µM (inactive)	10 µM (inactive)		13.2 µM (inactive)	6.05 µM (inactive)
CC1(C)c2ccccc2C(C)(C)C(C(=O)Nc2ccccc2)C1C(=O)O (stereo unspecified)	> 100 µM (inactive)	> 100 µM (inactive)	> 100 µM (inactive)	> 100 µM (inactive)	> 100 µM (inactive)	> 100 µM (inactive)	> 100 µM (inactive)			> 100 µM (inactive)		> 100 µM (inactive)	> 100 µM (inactive)	> 100 µM (inactive)		> 100 µM (inactive)	> 100 µM (inactive)		> 100 µM (inactive)	> 100 µM (inactive)
NC(=O)OCC1=C(COC(N)=O)C(=O)c2c(O)ccc(O)c2C1=O	> 100 µM (inactive)	> 100 µM (inactive)	> 100 µM (inactive)	> 100 µM (inactive)	> 100 µM (inactive)	> 100 µM (inactive)	78.7 µM (inactive)			> 100 µM (inactive)		> 100 µM (inactive)	> 100 µM (inactive)	45.2 µM (inactive)	> 100 µM	> 100 µM (inactive)	> 100 µM (inactive)		> 100 µM (inactive)	> 100 µM (inactive)
